Data: US9139532B2, “Pyrazolyl guanidine F1F0-atpase inhibitors and therapeutic uses thereof” (Lycera Corporation, priority 2010, dated 2015)
pEC50, pIC50: −log10 of the molar value. Read-outs that look alike come from different tables or passages of the source.

Assays:
[1] = target: T1, F1F0-ATPase (Bos taurus, UniProt P13621); assay: Inhibition of F1F0-ATPase activity in synthesizing ATP; format: biochemical; conditions: inhibition of ATP synthesis by F1F0-ATPase; read-out: ATP Syn IC50
T1 construct: from tissue

[2] = system: Ramos cells; assay: Cytotoxicity in Ramos cells; format: cell-based; conditions: cytotoxicity in Ramos cells, read-out: Ramos Cell EC50

Compound	pIC50 [1]	pEC50 ([2]; Homo sapiens)	pEC50 [2]
CC(N/C(=N/C(=O)c1ccc(C(F)(F)F)cc1)Nc1cc(C(F)(F)F)[nH]n1)c1ccc(Cl)cc1 (stereo not drawn) [Compound A-23]	> 5.00	> 5.00	–
O=C(/N=C(/NCc1ccc(F)cc1Cl)Nc1cc(C(F)(F)F)[nH]n1)c1ccc(F)c(F)c1 [Compound A-24]	> 5.00	> 5.00	–
O=C(/N=C(/NCc1ccc(F)c(Cl)c1)Nc1cc(C(F)(F)F)[nH]n1)c1ccc(F)c(F)c1 [Compound A-25]	> 5.00	> 5.00	–
O=C(/N=C(/NCc1ccc(Cl)c(F)c1)Nc1cc(C(F)(F)F)[nH]n1)c1ccc(F)c(F)c1 [Compound A-26]	> 5.00	> 5.00	–
O=C(/N=C(/NCc1ccc(Cl)cc1F)Nc1cc(C(F)(F)F)[nH]n1)c1ccc(F)c(F)c1 [Compound A-27]	> 5.00	> 5.00	–
CC(N/C(=N/C(=O)c1ccc(F)c(F)c1)Nc1cc(C(F)(F)F)[nH]n1)c1ccccc1Cl (stereo not drawn) [Compound A-28]	> 5.00	> 5.00	–
CC(N/C(=N/C(=O)c1ccc(F)c(F)c1)Nc1cc(C(F)(F)F)[nH]n1)c1ccc(Cl)cc1 (stereo not drawn) [Compound A-29]	> 5.00	> 5.00	–
O=C(/N=C(/NCc1ccc(F)cc1Cl)Nc1cc(C(F)(F)F)[nH]n1)c1ccc(Cl)cc1 [Compound A-30]	> 5.00	> 5.00	–
O=C(/N=C(/NCc1ccc(F)c(Cl)c1)Nc1cc(C(F)(F)F)[nH]n1)c1ccc(Cl)cc1 [Compound A-31]	> 5.00	> 5.00	–
O=C(/N=C(/NCc1ccc(Cl)c(F)c1)Nc1cc(C(F)(F)F)[nH]n1)c1ccc(Cl)cc1 [Compound A-32]	> 5.00	> 5.00	–
O=C(/N=C(/NCc1ccc(Cl)cc1F)Nc1cc(C(F)(F)F)[nH]n1)c1ccc(Cl)cc1 [Compound A-33]	> 5.00	> 5.00	–
CC(N/C(=N/C(=O)c1ccc(Cl)cc1)Nc1cc(C(F)(F)F)[nH]n1)c1ccccc1Cl (stereo not drawn) [Compound A-34]	> 5.00	> 5.00	–
CC(N/C(=N/C(=O)c1ccc(Cl)cc1)Nc1cc(C(F)(F)F)[nH]n1)c1cccc(Cl)c1 (stereo not drawn) [Compound A-35]	> 5.00	> 5.00	–
CC(N/C(=N/C(=O)c1ccc(Cl)cc1)Nc1cc(C(F)(F)F)[nH]n1)c1ccc(Cl)cc1 (stereo not drawn) [Compound A-36]	> 5.00	> 5.00	–
CC(C)(C)N/C(=N/C(=O)c1ccc(Cl)cc1)Nc1n[nH]cc1C#N [Compound A-37]	> 5.00	< 5.00	–
CC1(N/C(=N/C(=O)c2ccc(Cl)cc2)Nc2n[nH]c3ccccc23)CCC1 [Compound A-38]	> 5.00	> 5.00	–
O=C(/N=C(/NCc1cc(F)c(F)c(F)c1)Nc1cc(C(F)(F)F)[nH]n1)c1ccc(F)c(F)c1 [Compound A-39]	> 5.00	–	–
CC(C)(C)N/C(=N/C(=O)c1ccc(Cl)c(F)c1)Nc1cc(C(F)(F)F)[nH]n1 [Compound A-40]	> 5.00	> 5.00	–
O=C(/N=C(\Nc1cc(C(F)(F)F)[nH]n1)NC1CCCCCC1)c1ccc(F)c(F)c1 [Compound A-41]	> 5.00	> 5.00	–
CC(C)(C)CN/C(=N/C(=O)c1ccc(Cl)cc1)Nc1cc(C(F)(F)F)n[nH]1 [Compound A-42]	> 5.00	> 5.00	–

Compound	pIC50 [1]	pEC50 ([2]; Homo sapiens)	pEC50 [2]
CC(C)(C)CN/C(=N/C(=O)c1ccc(F)c(F)c1)Nc1cc(C(F)(F)F)n[nH]1 [Compound A-43]	> 5.00	> 5.00	–
CN(/C(=N\C(=O)c1ccc(F)c(F)c1)NC(C)(C)C)c1cc(C(F)(F)F)[nH]n1 [Compound A-44]	< 5.00	< 5.00	–
Cc1cc(N/C(=N\C(=O)c2ccc(F)c(F)c2)Nc2cc(F)cc(Cl)c2)n[nH]1 [Compound A-45]	> 5.00	< 5.00	–
C[C@@H](N/C(=N/C(=O)c1ccc(F)c(F)c1)Nc1cc(C(F)(F)F)[nH]n1)c1ccc(Cl)cc1 [Compound A-46]	> 5.00	> 5.00	–
C[C@H](N/C(=N/C(=O)c1ccc(F)c(F)c1)Nc1cc(C(F)(F)F)[nH]n1)c1ccc(Cl)cc1 [Compound A-47]	> 5.00	> 5.00	–
Cn1nc(C(F)(F)F)cc1N/C(=N\C(=O)c1ccc(C(F)(F)F)cc1)Nc1cc(F)cc(Cl)c1 [Compound A-48]	> 5.00	> 5.00	–
CC(C)(C)N/C(=N/C(=O)c1ccc(C(F)(F)F)cc1)Nc1cc(-c2ccc(F)cc2)[nH]n1 [Compound A-50]	> 5.00	> 5.00	–
CC(C)(C)CN/C(=N/C(=O)c1ccc(C(F)(F)F)cc1)Nc1cc(C(F)(F)F)n[nH]1 [Compound A-51]	> 5.00	> 5.00	–
O=C(/N=C(/Nc1cc(F)cc(Cl)c1)Nc1cc(C(F)F)[nH]n1)c1ccc(F)c(F)c1 [Compound A-52]	> 5.00	> 5.00	–
CC(C)(C)N/C(=N/C(=O)c1ccc(C(F)(F)F)cc1)Nc1cc(C(F)F)[nH]n1 [Compound A-53]	> 5.00	> 5.00	–
CC(C)(C)N/C(=N/C(=O)c1ccc(Cl)cc1)Nc1cc(C(F)F)[nH]n1 [Compound A-54]	> 5.00	> 5.00	–
COC(=O)c1cc(N/C(=N\C(=O)c2ccc(C(F)(F)F)cc2)NC(C)(C)C)[nH]n1 [Compound A-339]	–	–	< 5.00
CC(C)(C)N/C(=N/C(=O)c1ccc(Cl)c(F)c1)Nc1cc(-c2cc(F)cc(F)c2)n[nH]1 [Compound A-354]	–	–	> 5.00
CC1(N/C(=N/C(=O)c2ccc(Cl)c(F)c2)Nc2cc(-c3cc(F)cc(F)c3)n[nH]2)CCCC1 [Compound A-355]	–	–	< 5.00
CCC(C)N/C(=N/C(=O)c1ccc(Cl)c(F)c1)Nc1cc(-c2cc(F)cc(F)c2)n[nH]1 (stereo not drawn) [Compound A-356]	–	–	> 5.00
CC(C)(N/C(=N/C(=O)c1ccc(Cl)c(F)c1)Nc1cc(-c2cc(F)cc(F)c2)n[nH]1)C(F)(F)F [Compound A-357]	–	–	< 5.00
CC1(N/C(=N/C(=O)c2ccc(Cl)c(F)c2)Nc2cc(-c3cc(F)cc(F)c3)n[nH]2)CC1 [Compound A-358]	–	–	> 5.00
COCC(C)(C)NC(=NC(=O)c1cccc(C#N)c1)Nc1cc(-c2ccc(F)cc2)n[nH]1 [Compound A-504]	> 5.00	–	–
COCCOCC(C)(C)N/C(=N/C(=O)c1ccc(F)cc1)Nc1cc(-c2ccc(F)cc2)n[nH]1 [Compound A-507]	–	–	> 5.00
CC(C)CN/C(=N/C(=O)c1cccc(C#N)c1)Nc1cc(-c2ccc(F)cc2)n[nH]1 [Compound A-508]	–	–	> 5.00

Now from value to molecule, other results behind:

pIC50 [1]	Compound	pEC50 ([2]; Homo sapiens)	pEC50 [2]
> 5.00	O=C(/N=C(/NCC(F)(F)F)Nc1cc(C(F)(F)F)[nH]n1)c1ccc(C(F)(F)F)cc1 [Compound A-1]	> 5.00	–
> 5.00	O=C(/N=C(/NCc1cccc(C(F)(F)F)c1)Nc1cc(C(F)(F)F)[nH]n1)c1ccc(C(F)(F)F)cc1 [Compound A-2]	> 5.00	–
> 5.00	O=C(/N=C(/NCc1ccc(F)c(Cl)c1)Nc1cc(C(F)(F)F)[nH]n1)c1ccc(Cl)c(F)c1 [Compound A-3]	> 5.00	–
> 5.00	CC(C)(C)N/C(=N/C(=O)c1ccc(Cl)cc1)Nc1cc(C(F)(F)F)[nH]n1 [Compound A-4]	> 5.00	–
> 5.00	O=C(/N=C(/NCC(F)(F)F)Nc1cc(C(F)(F)F)[nH]n1)c1ccc(Cl)cc1 [Compound A-5]	> 5.00	–
> 5.00	CC1(N/C(=N/C(=O)c2ccc(Cl)cc2)Nc2cc(C(F)(F)F)[nH]n2)CCC1 [Compound A-6]	> 5.00	–
> 5.00	O=C(/N=C(\Nc1cc(C(F)(F)F)[nH]n1)NC(C1CC1)C1CC1)c1ccc(Cl)cc1 [Compound A-7]	> 5.00	–
> 5.00	O=C(/N=C(/NCc1ccccc1C(F)(F)F)Nc1cc(C(F)(F)F)n[nH]1)c1ccc(F)c(F)c1 [Compound A-8]	> 5.00	–
> 5.00	O=C(/N=C(/NCc1ccccc1C(F)(F)F)Nc1cc(C(F)(F)F)n[nH]1)c1ccc(Cl)cc1 [Compound A-9]	> 5.00	–
> 5.00	O=C(/N=C(/NCc1cccc(C(F)(F)F)c1)Nc1cc(C(F)(F)F)n[nH]1)c1ccc(Cl)cc1 [Compound A-10]	> 5.00	–
> 5.00	O=C(/N=C(/NCC(F)(F)F)Nc1cc(C(F)(F)F)n[nH]1)c1ccc(F)c(F)c1 [Compound A-11]	> 5.00	–
> 5.00	CC(C)(C)N/C(=N/C(=O)c1ccc(F)c(F)c1)Nc1cc(C(F)(F)F)n[nH]1 [Compound A-12]	> 5.00	–
> 5.00	CC(C)(C)N/C(=N/C(=O)c1ccc(C(F)(F)F)cc1)Nc1cc(C(F)(F)F)n[nH]1 [Compound A-13]	> 5.00	–
> 5.00	O=C(/N=C(\Nc1cc(C(F)(F)F)[nH]n1)NC1CCCCCC1)c1ccc(C(F)(F)F)cc1 [Compound A-14]	> 5.00	–
> 5.00	CC(C)(C)c1cc(N/C(=N\C(=O)c2ccc(Cl)cc2)NC(C2CC2)C2CC2)n[nH]1 [Compound A-15]	> 5.00	–
> 5.00	CC(C)(C)c1cc(N/C(=N\C(=O)c2ccc(Cl)cc2)NCC(F)(F)F)n[nH]1 [Compound A-16]	> 5.00	–
> 5.00	CC1(N/C(=N/C(=O)c2ccc(Cl)cc2)Nc2cc(C(C)(C)C)[nH]n2)CCC1 [Compound A-17]	> 5.00	–
> 5.00	O=C(/N=C(/NCc1ccc(F)cc1Cl)Nc1cc(C(F)(F)F)[nH]n1)c1ccc(C(F)(F)F)cc1 [Compound A-18]	> 5.00	–
> 5.00	O=C(/N=C(/NCc1ccc(F)c(Cl)c1)Nc1cc(C(F)(F)F)[nH]n1)c1ccc(C(F)(F)F)cc1 [Compound A-19]	> 5.00	–
> 5.00	O=C(/N=C(/NCc1ccc(Cl)c(F)c1)Nc1cc(C(F)(F)F)[nH]n1)c1ccc(C(F)(F)F)cc1 [Compound A-20]	> 5.00	–
> 5.00	O=C(/N=C(/NCc1ccc(Cl)cc1F)Nc1cc(C(F)(F)F)[nH]n1)c1ccc(C(F)(F)F)cc1 [Compound A-21]	> 5.00	–
> 5.00	CC(N/C(=N/C(=O)c1ccc(C(F)(F)F)cc1)Nc1cc(C(F)(F)F)[nH]n1)c1ccccc1Cl (stereo not drawn) [Compound A-22]	> 5.00	–
